# Assay results reported in patent US20160045687A1, “NASAL ADMINISTRATION” (OPTINOSE AS, priority 2013, published 2016).
# Structures can show the parent of a compound that is named as a salt. Where two headings read alike, the source gives them in different places.
# Key:
# [1] = cited from earlier work
# [2] = Fluticasone bioavailability at higher Breath Powered doses; assay type: in vivo, human; details: 400 ug or 800 ug twice daily as compared to 200 ug daily conventionally
# [3] = system: post-surgical recalcitrant CRS without polyps; assay: Example #11: placebo controlled study of fluticasone with Breath Powered liquid device; assay type: in vivo, human; details: 12 weeks
# Protocol: Using the same drug-device combination product as Example #10, a small placebo controlled study (N=20) was performed in patients with post-surgical recalcitrant CRS without polyps, producing clinically significant improvements on both objective measures and subjective symptoms.
# [4] = system: chronic rhinosinusitis (CRS) with nasal polyps; assay: Example #10: 3-month placebo controlled study of fluticasone with Breath Powered liquid device; assay type: in vivo, human
# single migraine attack = assay: Example #1: headache relief after 16 mg intranasal Breath Powered sumatriptan vs 100 mg oral sumatriptan; assay type: in vivo, human
# Description: The purpose of this study was to study the onset of headache relief following a dose of sumatriptan. The study population included 436 subjects.
# Headache relief is defined as a reduction from moderate (grade 2) or severe (grade 3) to none (grade 0) or mild (grade 1) pain.
# migraine headaches = assay: Examples #4/#7: double-blind crossover head-to-head study, Breath Powered sumatriptan vs 100 mg tablet, blinded pooled data; assay type: in vivo, human; details: 16 mg nasal with placebo tablet; scenario inferred from blinded data
# Protocol: The study is a cross-over design where each patient enrolled will treat headaches with each of the treatments. Specifically, patients will treat up to 5 headaches with a treatment and then cross over to treat up to 5 headaches with the other. With each headache, the patient uses the device and takes a tablet, only one of which will be active. From data on over 400 headaches, as yet unblinded, the results obtained at the 30 min timepoint (headache relief 30 minutes after taking medication) for moderate or severe headaches is 54%.
# One set of data include blinded head-to-head (H2H) results. They generally show a high response rate In blinded data, i.e., a reduction from severe/moderate migraine or mild or none.
# [5] = Example #3: sumatriptan PK in nitroglycerin (GTN)-induced migraine vs healthy subjects; details: human, in vivo, Breath Powered device
# [6] = system: cultured rat trigeminal ganglion cells; details: carbon dioxide treatment of cultures under isohydric conditions; cited from earlier work
# episodic migraine = details: continuous carbon dioxide infusion; cited from earlier work
smiles,measurement,setting,value
"CN1C[C@H](C(=O)N[C@]2(C)O[C@@]3(O)[C@@H]4CCCN4C(=O)[C@H](Cc4ccccc4)N3C2=O)C[C@@H]2c3cccc4[nH]cc(c34)C[C@H]21 [DHE, dihydroergotamine mesylate]",bioavailability,[1]; administered intranasally,~40%
same,bioavailability,[1]; given orally,less than 1%
C[C@@H]1C[C@H]2[C@@H]3C[C@H](F)C4=CC(=O)C=C[C@]4(C)[C@@]3(F)[C@@H](O)C[C@]2(C)[C@@]1(O)C(=O)SCF [fluticasone],bioavailability,[2],no significantly greater bioavailability
same,endoscopy score for edema (median scores),[3],−4.0
same,tolerability,"[4]; 400 μg b.i.d., 3 months",well tolerated
same,subjects with complete elimination of the polyps,"[4]; 400 μg b.i.d., after 3 months",~20%
same,proportion of subjects with improvement in summed polyp score,[4]; 4 weeks,22%
same,proportion of subjects with improvement in summed polyp score,[4]; 8 weeks,43%
same,proportion of subjects with improvement in summed polyp score,[4]; 12 weeks,57%
same,change in polyp score,[4]; after 12 weeks,−0.98
same,summed polyp score,"[4]; after 12 weeks, baseline 2.8",1.8
CNS(=O)(=O)Cc1ccc2[nH]cc(CCN(C)C)c2c1 [sumatriptan],response rate (headache relief) at 30 minutes,single migraine attack; 16 mg of sumatriptan in the Breath Powered device and oral tablet placebo,67%
same,response rate (headache relief) at 30 minutes,single migraine attack; 100 mg of sumatriptan orally with the placebo device,39%
same,suggested response rate at 30 minutes,migraine headaches,70%
same,bioavailability,"[5]; other: intranasal powder, 7.5 mg delivered to the side of the migraine during a GTN attack in migraineurs",27%
same,Cmax,"[5]; other: intranasal, 7.5 mg",11 ng/mL
O=C=O [carbon dioxide],effect on CGRP secretion,[6],"significantly repressed the stimulatory effects of KCI, capsaicin, and nitric oxide on CGRP secretion"
same,2-hour pain free response,episodic migraine,25.0%
CN(C)CCc1c[nH]c2ccc(C[C@H]3COC(=O)N3)cc12 [zolmitriptan],nasal fraction of the total absorption,[1]; conventional nasal spray,approximately 30%
